In ChEMBL document CHEMBL5584284, “Advancing Neurological Therapies: Integrating Novel Compounds and Clinical Trials for Enhanced Cognitive and Neuronal Health” (ACS Med Chem Lett, 2024):
The source made the active and inactive calls. The calls are words filed in the database; no cut-off is given here.

Tests used:
Assay type in all cases: functional, cell-based
Cortical neurone [1] = assay: Neuroplasticity effect in Wistar rat cortical neurons assessed as increase in neurite length at <= 10 uM incubated for 72 […]
Cortical neurone [2] = assay: Neuroplasticity effect in Wistar rat cortical neurons assessed as increase in neurite branching at <= 10 uM incubated for 72 […]
Cortical neurone [3] = assay: Neuroplasticity effect in Wistar rat cortical neurons assessed as increase in neurite number at <= 10 uM incubated for 72 […]

Row | Compound | Activity (Cortical neurone [1]) | Activity (Cortical neurone [2]) | Activity (Cortical neurone [3])
1 | Fc1ccc(Oc2ccc3c(c2)NC2CCNCCC32)cc1 (stereo not drawn) | Active | Active | Active
2 | CN1CCC2c3ccc(Oc4ccccc4)cc3N(C)C2CC1 (stereo not drawn) | Active | inactive | inactive
3 | CN1CCC2Nc3cc(OCc4ccccc4)ccc3C2CC1 (stereo not drawn) | Active | inactive | Active
4 | CN1CCC2Nc3cc(Oc4ccccc4)ccc3C2CC1 (stereo not drawn) | Active | Active | Active
5 | CN1CCC2Nc3cc(OCc4ccc(F)cc4)ccc3C2CC1 (stereo not drawn) | Active | Active | Active
6 | c1ccc(COc2ccc3c(c2)NC2CCNCCC32)cc1 (stereo not drawn) | Active | Active | Active
